# Measured values: the NIST ThermoML archive (doi:10.1021/je700384e)
# ± gives the expanded uncertainty stated by the source.
# Conditions: Crystal; DTA
row,Triple point temperature [K],Compound
1,216.56 ± 0.5,O=C=O [carbon dioxide]
2,154.3 ± 0.5,"CC(F)F [1,1-difluoroethane]"
3,181.99 ± 0.5,[N-]=[N+]=O [nitrous oxide]
